Laboratory results as given in patent US6096338A, “Delivery systems for hydrophobic drugs” (R. P. Scherer Corporation, priority 1994, dated 2000).
Converted amounts (≈) assume the structure as drawn. Read-outs that look alike come from different tables or passages of the source.

Tests used:
[1] = Aqueous solubility of hydrophobic drugs in simulated intestinal fluid with bile and lipolytic products; format: physicochemical; settings: pH 6.5
Procedure: As stated above, the aqueous solubilities of hydrophobic drugs can be increased by incorporation into mixed micelles, formed by bile salts and lipolytic products of triglyceride oil digestion.
An aqueous medium was prepared to simulate the intestinal environment using the following components:
100 mls pH 6.5 Tris-maleate buffer solution containing:
The medium was prepared as described in the in vitro test procedure described above. To this simulated intestinal fluid a series of different components were added to evaluate the enhancement of the aqueous solubility of a range of hydrophobic drugs. The components which were added were:
Experiment (i) Nothing (control experiment)
15 mM crude ox gallbladder bile
15 mM crude ox gallbladder bile +
500 mg of medium chain lipolytic
products (137 mg capric acid, 98 mg
glyceryl monocaprate, 151 mg
caprylic acid and 114 mg glyceryl
500 mg of long chain lipolytic
products (307 mg oleic acid and
193 mg glyceryl monooleate). […]
Then 100 mg of drug, in powder form, was added to the reaction medium, the pH was adjusted to 6.5 and the medium was mixed for 21/2 hours. At this time a sample was taken from the vessel, filtered through a 0.2 micron filter and the quantity of drug in solution in the simulated intestinal fluid was determined by a specific HPLC method.

[2] = Aqueous solubility of progesterone in buffer, bile and lipolytic products; format: physicochemical; settings: for solubility at 1 h / solubility at 2 h: pH 6.5, 37° C.; for solubility at 1 h: read-out: Progesterone solubility after 60 minutes; for solubility at 2 h: read-out: Progesterone solubility after 120 minutes
Procedure: The solubility of progesterone was determined as follows:
The following five aqueous media were each prepared at 37° C. in the pH-Stat reaction vessel. The pH of each solution was adjusted to exactly 6.50 by the addition of an appropriate volume of 1.0 molar sodium hydroxide solution. […]
pH 6.50 tris-maleate buffer solution (containing 5 mM calcium chloride and 150 mM sodium chloride) pH 6.50 tris-maleate buffer solution+15 mM ox bile pH 6.50 tris-maleate buffer solution+15 mM ox bile+0.5% hydrophilic surfactant (Cremophor RH40) pH 6.50 tris-maleate buffer solution+15 mM ox bile+medium chain lipolytic products viz 53% by weight of caprylic acid-monocaprylate (2:1 molar ratio) and 47% by weight of capric acid-monocaprate (2:1 molar ratio) […]
pH 6.50 tris maleate buffer solution+15 mM ox bile+0.5% long chain lipolytic products viz oleic acid and monoolein (2:1 molar ratio) The following procedures was performed in triplicate. 15 mls of each of the above aqueous media were added to approximately 20 mgs (excess) of progesterone in 21 ml glass vials. Each vial was whirlmixed and then maintained at 37° C. in an ultrasonic bath for 120 minutes. After 60 and 120 minutes, 3 ml of each solution were extracted for progesterone solubility determination by HPLC, using the following standard procedure:
Each sample is filtered through a 13 mm 0.2 μm PVDF syringe filter (supplied by Whatman®). The first 1.5 ml of filtrate is discarded. 0.8 ml of the remaining filtrate is combined with 0.8 ml of acetonitrile (the mobile phase) in an amber glass vial. The vial is then hermetically sealed and shaken by hand and then analysed.

[3] = system: Pancreatic lipase; assay: In vitro lipolysis test (pH-stat titration) of fractionated coconut oil (FCO) with hydrophilic and lipophilic surfactants; format: biochemical; settings: FCO with Cremophor RH40 and lipophilic surfactant; FIG. 2
Excerpt: In Vitro Test for Determining the Suitability of Hydrophilic and Lipophilic Surfactants
Pancreatic lipase in the presence of colipase catalyses the lipolysis (also termed hydrolysis or de-esterification) of emulsified oils, a process that results in the production of fatty acids. The rate of fatty acid generation, and thus a measure of the rate of lipolysis, can be followed via continuous titration with a pH-stat as described below.
The pH-stat should comprise, for example, a pH-meter, an autoburette and an autotitration unit. These instruments can be obtained from Radiometer A/S, Copenhagen, Denmark as product numbers PHM82, ABU80 and TTT80, respectively.
The reaction should be performed in a glass thermostatted vessel maintained at 37.5±0.5° C. This vessel should have an internal diameter of approximately 7.5 cm and a height of approximately 7.0 cm. During an experiment the reaction vessel should be placed beneath the titration assembly unit so that the tips of the pH-electrodes and the stirrer are all at least 1 cm beneath the liquid level. […]
At time=30 minutes, titrate the pH up to precisely 6.50 (e.g. using 1.0M NaOH using the autotitrator). Record the volume of titrant dispensed, then re-zero the titrant display reading on the autotitrator. […]

[4] = Buffer + 15 mM ox bile + 0.5% MCLPs

## CC(C)(Sc1cc(C(C)(C)C)c(O)c(C(C)(C)C)c1)Sc1cc(C(C)(C)C)c(O)c(C(C)(C)C)c1 [Probucol, probucol]
[1]
  Buffer solubility: below the detection limit of assay

## CC(=O)[C@H]1CC[C@H]2[C@@H]3CCC4=CC(=O)CC[C@]4(C)[C@H]3CC[C@]12C [Progesterone, progesterone]
[2]; 0.5% long chain lipolytic products, vs bile salts
  Further increase in solubility with long chain lipolytic products: approximately 3 fold
[2]; 0.5% medium chain lipolytic products, vs bile salts
  Further increase in solubility with medium chain lipolytic products: approximately 3 fold
[2]; Buffer + 15 mM bile
  solubility at 1 h: 0.0466 ± 0.00047 mg/mL
  solubility at 2 h: 0.0455 ± 0.00108 mg/mL
[2]; Buffer + 15 mM ox bile + 0.5% LCLPs
  solubility at 1 h: 0.153 ± 0.00617 mg/mL
[2]; [4]
  solubility at 1 h: 0.136 ± 0.011 mg/mL
  solubility at 2 h: 0.142 ± 0.00631 mg/mL
[2]; aqueous buffer, Buffer alone
  solubility at 1 h: 0.0101 ± 0.00025 mg/mL (≈ 32.1 µM)
  solubility at 2 h: 0.00947 ± 0.00116 mg/mL (≈ 30.1 µM)
[2]; bile salts vs buffer alone
  Increase in solubility in bile salts compared to buffer alone: approximately 4.5 fold

## CCCCCCCC/C=C\CCCCCCCC(=O)O [oleic acid]
[3]
  Ability to overcome inhibitory effects of Cremophor RH40 on rate of FCO lipolysis: capable of overcoming the inhibitory effects
